Consider seven compounds from patent publication US20250368635A1, “HETEROARYL DERIVATIVE COMPOUND, AND USES THEREOF” (VORONOI, INC., priority 2022, published 2025).

Some results are limits rather than exact numbers.

As usually defined, the GI50 is the concentration at which growth is held to half of that of the control.

The subject of assay [1] is Ba/F3 cells expressing EGFR L858R/C797S (EGFR LC). Put plainly: Inhibition of proliferation of Ba/F3 cells expressing EGFR L858R/C797S (CellTiter-Glo, 72 h). The class given is cell-based. As to conditions: Mus musculus, BaF3, 72 hours treatment. How it is done:
(§1) The following experiment was performed to evaluate the inhibitory activity of the compounds according to the present invention on the proliferation of Ba/F3 cells expressing EGFR Del19/C797S (EGFR DC) and EGFR L858R/C797S (EGFR LC) mutations.
(§2) Ba/F3 cells were cultured using medium (RPMI-1640) containing 10% fetal bovine serum (FBS) and 5 ng/ml IL-3 (R&D Systems). The transduced Ba/F3 cells were cultured by adding 1 μg/ml puromycin (Invitrogen) to the same medium.
(§3) 24 hours prior to treatment with compounds, 3,000 to 5,000 cells were seeded on a well plate (white clear bottom 96 well plate, Corning). The compounds were diluted in dimethyl sulfoxide (3-fold dilution, total of 12 concentrations) and injected at 1 μl each so that the final concentration was 0.2 nM to 5 μM. After 72 hours post treatment with compounds, living cells were stored at room temperature for 10 minutes using CellTiter-Glo luminescent cell-viability reagent (Promega), and the luminescence intensity thereof was measured using a reader (Synergy Neo, Biotek). Each test was repeated three times. The result values were calculated as a cell growth rate (%) compared to the control group. A graph was created using the GraphPad Prism version 8.3.0 program, and GI50 values were calculated.
For orientation: In ATP-based viability assays light output follows the ATP content of the culture.

Assay [2] deals with Ba/F3 cells expressing EGFR Del19/C797S (EGFR DC). Description: Inhibition of proliferation of Ba/F3 cells expressing EGFR Del19/C797S (CellTiter-Glo, 72 h). The class given is cell-based. The following applies: Mus musculus, BaF3, 72 hours treatment. How it is done:
as §1, §2, §3

Regarding `COc1cc(N2CCC3(CC2)CCN(C(C)(C)CF)CC3)c(-c2cnn(C)c2)cc1Nc1cc(N2OCC[C@@H]2c2ccccc2)ncn1` [Example 10, (R)-N-(4-(9-(1-fluoro-2-methylpropan-2-yl)-3,9-diazaspiro[5.5]undecan-3-yl)-2-methoxy-5-(1-methyl-1H-pyrazol-4-yl)phenyl)-6-(3-phenylisoxazolidin-2-yl)pyrimidin-4-amine], the GI50 in assay [1] and in assay [2] was less than 100 nM in each case.
As for `COc1cc(N2CC3(CCN(C(C)(C)CF)CC3)C2)c(-c2cnn(C)c2)cc1Nc1cc(N2OCC[C@@H]2c2cccc(F)c2F)ncn1` [Example 14, (R)-6-(3-(2,3-difluorophenyl)isoxazolidin-2-yl)-N-(4-(7-(1-fluoro-2-methylpropan-2-yl)-2,7-diazaspiro[3.5]nonan-2-yl)-2-methoxy-5-(1-methyl-1H-pyrazol-4-yl)phenyl)pyrimidin-4-amine], the GI50 in assay [1] and in assay [2] was less than 100 nM throughout.
As for `COc1cc(N2CCC3(CCOCC3)CC2)c(-c2cnn(C)c2)cc1Nc1cc(N2OCC[C@@H]2c2cccc(F)c2F)ncn1` [Example 28, (R)-6-(3-(2,3-difluorophenyl)isoxazolidin-2-yl)-N-(2-methoxy-5-(1-methyl-1H-pyrazol-4-yl)-4-(3-oxa-9-azaspiro[5.5]undecan-9-yl)phenyl)pyrimidin-4-amine], the concentration for 50% growth inhibition (GI50) in assay [1] and in assay [2] was less than 100 nM in each case.
As for `COc1cc(N2CCC3(CC2)CC(OC)C3)c(-c2cnn(C)c2)cc1Nc1cc(N2OCC[C@@H]2c2cccc(F)c2F)ncn1` [Example 30, (R)-6-(3-(2,3-difluorophenyl)isoxazolidin-2-yl)-N-(2-methoxy-4-(2-methoxy-7-azaspiro[3.5]nonan-7-yl)-5-(1-methyl-1H-pyrazol-4-yl)phenyl)pyrimidin-4-amine], the GI50 in assay [1] and in assay [2] was less than 100 nM throughout.
For `COc1cc(N2CCC3(CC2)CC3(F)F)c(-c2cnn(C)c2)cc1Nc1cc(N2OCC[C@@H]2c2cccc(F)c2F)ncn1` [Example 32, (R)-N-(4-(1,1-difluoro-6-azaspiro[2.5]octan-6-yl)-2-methoxy-5-(1-methyl-1H-pyrazol-4-yl)phenyl)-6-(3-(2,3-difluorophenyl)isoxazolidin-2-yl)pyrimidin-4-amine], the GI50 in assay [1] and in assay [2] was 100 to 1000 nM each time.
`COc1cc(N2CCC3C(C2)C3(F)F)c(-c2cnn(C)c2)cc1Nc1cc(N2OCC[C@@H]2c2cccc(F)c2F)ncn1` (stereo partly drawn) [Example 41, N-(4-(7,7-difluoro-3-azabicyclo[4.1.0]heptan-3-yl)-2-methoxy-5-(1-methyl-1H-pyrazol-4-yl)phenyl)-6-((R)-3-(2,3-difluorophenyl)isoxazolidin-2-yl)pyrimidin-4-amine]: the GI50 in assay [1] and in assay [2] was 100 to 1000 nM throughout.
In the case of `COc1cc(N2CCC3(CCN(CCF)CC3)CC2)c(-c2cnn(C)c2)cc1Nc1cc(N2OCC[C@@H]2c2cccc(F)c2F)ncn1` [Example 50, (R)-6-(3-(2,3-difluorophenyl)isoxazolidin-2-yl)-N-(4-(9-(2-fluoroethyl)-3,9-diazaspiro[5.5]undecan-3-yl)-2-methoxy-5-(1-methyl-1H-pyrazol-4-yl)phenyl)pyrimidin-4-amine], the GI50 in assay [1] and in assay [2] was less than 100 nM each time.
